Assay type: physicochemical
Settings: pH 9

COC1=CC=C2[C@H]3Cc4ccc(O)c5c4[C@@]2(CCN3C)[C@H]1O5 [oripavine]
% in the solvent after a 1-stage extraction (corresponding to D): 93.3% | maximum D value: 14.5 | single stage extraction efficiency for oripavine: 96%
